Key:
[1] = target: T1, CX3CR1 receptor (Homo sapiens, UniProt P49238); experiment: Fractalkine (CX3CR1) GTPgS inhibition assay (96 well); assay type: biochemical; conditions: CX3CR1 CHO K1 membranes, inhibition of 35S-GTPγS signal generated by EC80 of fractalkine, triplicate
T1 construct: host or cells: CHO K1 cells; membranes prepared in-house
T1 sequence (P49238 1-355): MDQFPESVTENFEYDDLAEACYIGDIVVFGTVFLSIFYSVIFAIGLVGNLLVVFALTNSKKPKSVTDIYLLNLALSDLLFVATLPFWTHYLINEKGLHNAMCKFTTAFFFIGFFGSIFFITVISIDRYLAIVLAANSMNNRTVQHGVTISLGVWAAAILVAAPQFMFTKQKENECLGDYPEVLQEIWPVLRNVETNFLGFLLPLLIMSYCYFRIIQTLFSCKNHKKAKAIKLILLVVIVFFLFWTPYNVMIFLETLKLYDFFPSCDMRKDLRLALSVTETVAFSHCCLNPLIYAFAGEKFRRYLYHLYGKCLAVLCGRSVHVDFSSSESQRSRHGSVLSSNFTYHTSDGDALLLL
Experimental: The activation of the CX3CR1 receptor by fractalkine can be detected using a GTPγS assay. ^35S-labelled GTPγS is added to the reaction (together with compounds and CX3CR1 CHO K1 membranes) to bind to the G-protein in the membranes instead of GTP upon activation of the receptor. Since ^35S-labelled GTPγS is non-hydrolysable the receptor will stay in its active state. The bound ^35S-labelled GTPγS is separated from free by vacuum filtration onto 96 well filters. In inhibition assay mode the receptor in the membranes will be activated with the EC80 of fractalkine and further the CX3CR1 antagonists will inhibit the signal generated by the EC80 of fractalkine.
Ligand: Fractalkine, PeproTech, cat no 300-31, 1 mg, −20° C. Diluted in dH2O+0.05% BSA to a stock concentration of 0.1 mM, Stored in −20° C.
^35S-GTPγS, Perkin Elmer (NEN), Cat no NEG030H, Specific activity 1250 Ci/mmol, 1 mCi/ml, −20° C.
Membranes: membranes are prepared inhouse from CX3CR1 CHO K1 cells purchased from Euroscreen. Protein concentration: 5.7 mg/ml, −80° C.
• HEPES: Sigma H-3375, RT • MgCl2×6H2O: Merck, cat no 5833, RT • NaCl: Merck, cat no 6404, RT • GDP: −20° C., Sigma cat no G-7127, Diluted in dH2O to a stock concentration of 10 mM. • Stored in −20° C. • Gelatine type A: Sigma, cat no G2625, 1% stock in water (heating is necessary to dissolve gelatine) made fresh on the day of the experiment RT
• Tris: Tris-HCl: Sigma, cat no T1503, RT • Tris-base: Sigma, cat no T3283, RT • MgCl2×6H2O: Merck, cat no 5833, RT • NaCl: Merck, cat no 6404, RT • Assay plates: 96 well, Nunc, 269620 • Filter: Printed Filtermat B, Wallac • Scintillator sheets: MeltiLex B, PerkinElmer
Assay plates are prepared by CMT with 1 compound/plate. 2 μl compound with the highest concentration 3.3 mM diluted with a factor 3 in 10 steps. This gives a final assay concentration of 33 μM for the highest concentration.
100 μl membranes (5 μg/well) diluted in 2× assay buffer is added to the assay plate.
100 μl ^35S-GTPγS (final assay concentration: 0.00056 μCi/μl) diluted in dH2O with EC80 of fractalkine is then added. […]
The plate is read in a microbeta. […]

[2] = tested on: human whole blood, adhesion to fractalkine; experiment: Human whole blood flow adhesion assay; assay type: cell-based; conditions: heparinised human whole blood, adhesion to recombinant human fractalkine under flow, 15 min preincubation
Experimental: Flow adhesion assays were performed using a microfluidics system (Cellix Microfluidics SP1.0 platform) and 8-channel biochips (Cellix Vena 8 biochips). Channel 1 was used as control and channels 2 to 8 to evaluate seven different concentrations of antagonist. To 25 monitor adhesion to fractalkine, channels were first coated with 15 μl of anti-His Tag antibody at 25 μg/ml for 2 hours. Channels were then washed three times with 15 μl DPBS to remove unbound antibody. Subsequently, 15 μl of recombinant human fractalkine at 2.5 μg/ml was added to each channel and biochips were left at 4° C. overnight in a humidified atmosphere. The following day, channels were washed three times with 15 μl DPBS prior to blocking with 15 μl of BSA at 10 mg/ml for 30 minutes. Human whole blood was obtained by venipuncture using heparin as anti-coagulant. DMSO carrier or compounds in DMSO were added to 0.3 ml blood in 1.5 ml Eppendorf tubes followed by incubation at room temperature for 15 minutes. The Vena 8 biochip was placed on a microscope stage and channels were washed with RPMI 1640 medium containing 1% BSA in preparation for the assays. […] Adhered cells were subsequently quantified using DucoCell software (Cellix).

Structure (SMILES)	IC50 [1] [nM]	IC50 [2] [nM]
CC(C)C[C@H](CO)Nc1nc(SC(C)c2ccccn2)nc2[nH]c(=O)sc12 (stereo partly drawn) [Example 1, 7-[(R)-1-hydroxy-4-methylpentan-2-ylamino]-5-[1-(pyridin-2-yl)ethylthio]thiazolo[4,5-d]pyrimidin-2(3H)-one]	2600	–
CC(C)CC(CO)Nc1nc(SC(C)c2ccccn2)nc2[nH]c(=O)sc12 (single isomer, unassigned; isomer 2) [Example 13]	9200	–
CC(C)CC(CO)Nc1nc(SC(C)c2ccccn2)nc2[nH]c(=O)sc12 (single isomer, unassigned; isomer 1) [Example 12]	1000	2400

Source: patent US20090247555A1, “5,7-Disubstituted[1,3]Thiazolo[4,5-D]Pyrimidin-2(3H)-One Derivatives 258” (AstraZeneca AB, priority 2008, published 2009)
